Data published in patent US20240425480A1, “NOVEL PYRIDINE DERIVATIVE COMPOUND AS RON INHIBITOR” (LG CHEM, LTD., priority 2021, published 2024).
pIC50: −log10 of the molar value.

Assays:
[1] = biological target: RON (Homo sapiens, UniProt Q04912); experiment: Inhibitory activity against RON, TR-FRET kinase assay; type: biochemical; conditions: TR-FRET enzyme assay
Method: In order to measure the inhibitory activity of each of the compounds of Examples against RON, the IC50 of each of the compounds was measured using Time-resolved fluorescence energy transfer (TR-FRET).
(§1) Specifically, the compound was prepared to a concentration of 1 mM in 100% DMSO and was diluted 10 times in a stepwise manner through 3-fold dilution. The compound (2 ul) diluted in a stepwise manner was added to a 96-well-plate containing 48 ul of a 1× kinase reaction buffer (50 mM HEPES (pH 7.4), 0.01% Tween-20, 5 mM DTT, 0.5 mM Na3VO4, 2 mM EGTA, 10 mM MgCl2).
The RON protein was diluted to a concentration of 49.3 nM in a RON storage buffer (50 mM Tris-HCl (pH 7.5), 150 mM NaCl, 0.5 mM EDTA, 0.02% Triton X-100), and then diluted again to a concentration of 0.4 nM in a 1×kinase reaction buffer. As a substrate cocktail, a RON-specific substrate mixed solution (40 uM ULight-labeled Poly GT, 100 nM ATP) was prepared at a concentration 2 times the final reaction concentration.
(§2) Thereafter, a 384-well-plate was prepared, and 2.5 μl of each of the diluted compounds of Examples was added to a corresponding well of experimental group wells, and 2.5 μl of a 4% DMSO solution was dispensed into high control wells and low control wells.
(§3) Thereafter, 2.5 μL of 0.4 nM RON was dispensed into each of the high control wells and the experimental group wells, and 2.5 μL of the 1× kinase reaction buffer was added to the low control wells, and all the wells were centrifuged at room temperature for 40 seconds at 1,000 RPM, and then incubated at room temperature for 20-30 minutes. Then, 5 μL of the substrate cocktail (2×) was dispensed into each well, and all the wells were centrifuged at room temperature for 40 seconds at 1,000 RPM, and then incubated at room temperature for 60 minutes. Thereafter, 5 μL of 30 mM EDTA was added to each well to terminate the reaction, and all the wells were then incubated again at room temperature for 5 minutes. Thereafter, 5 μL of a 4×phosphotyrosine antibody (Perkin Elmer) containing europium was added to each well, and all the wells were then incubated at room temperature for 60 minutes. After the incubation, the 384-well-plate was read with the Vison plate reader. In this case, the excitation wavelength was 340 nm, and the emission wavelength was 620 nm and 665 nm. The IC50 value of each compound of Examples was derived using the GraphPd Prism7 program.

[2] = biological target: cMET (Homo sapiens, UniProt P08581); experiment: Inhibitory activity against MET (cMET), TR-FRET kinase assay; type: biochemical; conditions: TR-FRET enzyme assay
Method: In addition, in order to measure the enzyme activity inhibition for cMET, the evaluation was performed in the same manner as the enzyme activity inhibition measurement experiment for RON.
as §1, with “a 1×kinase” for “a 1× kinase”, “7.4), 0.05% BSA, 0.005%” for “7.4), 0.01%”, “Tween-20, 1” for “Tween-20, 5”, “mM MnCl2, 20” for “mM Na3VO4, 2 mM EGTA, 10”
The cMET protein was diluted to a concentration of 263 nM in a cMET storage buffer (50 mM Tris-HCl (pH 7.5), 150 mM NaCl, 0.05% Brij35, 1 mM DTT, 10% Glycerol), and then diluted again to a concentration of 2 nM in a 1×kinase reaction buffer. As a substrate cocktail, a MET-specific substrate mixed solution (5 uM TK peptide, 10 mM ATP) was prepared at a concentration 2 times the final reaction concentration.
as §2
as §3, with “of 2” for “of 0.4”, “nM cMET” for “nM RON”, “of 90” for “of 30”, “The […]” for “The IC50”

Chain of cMET (P08581 25-1390): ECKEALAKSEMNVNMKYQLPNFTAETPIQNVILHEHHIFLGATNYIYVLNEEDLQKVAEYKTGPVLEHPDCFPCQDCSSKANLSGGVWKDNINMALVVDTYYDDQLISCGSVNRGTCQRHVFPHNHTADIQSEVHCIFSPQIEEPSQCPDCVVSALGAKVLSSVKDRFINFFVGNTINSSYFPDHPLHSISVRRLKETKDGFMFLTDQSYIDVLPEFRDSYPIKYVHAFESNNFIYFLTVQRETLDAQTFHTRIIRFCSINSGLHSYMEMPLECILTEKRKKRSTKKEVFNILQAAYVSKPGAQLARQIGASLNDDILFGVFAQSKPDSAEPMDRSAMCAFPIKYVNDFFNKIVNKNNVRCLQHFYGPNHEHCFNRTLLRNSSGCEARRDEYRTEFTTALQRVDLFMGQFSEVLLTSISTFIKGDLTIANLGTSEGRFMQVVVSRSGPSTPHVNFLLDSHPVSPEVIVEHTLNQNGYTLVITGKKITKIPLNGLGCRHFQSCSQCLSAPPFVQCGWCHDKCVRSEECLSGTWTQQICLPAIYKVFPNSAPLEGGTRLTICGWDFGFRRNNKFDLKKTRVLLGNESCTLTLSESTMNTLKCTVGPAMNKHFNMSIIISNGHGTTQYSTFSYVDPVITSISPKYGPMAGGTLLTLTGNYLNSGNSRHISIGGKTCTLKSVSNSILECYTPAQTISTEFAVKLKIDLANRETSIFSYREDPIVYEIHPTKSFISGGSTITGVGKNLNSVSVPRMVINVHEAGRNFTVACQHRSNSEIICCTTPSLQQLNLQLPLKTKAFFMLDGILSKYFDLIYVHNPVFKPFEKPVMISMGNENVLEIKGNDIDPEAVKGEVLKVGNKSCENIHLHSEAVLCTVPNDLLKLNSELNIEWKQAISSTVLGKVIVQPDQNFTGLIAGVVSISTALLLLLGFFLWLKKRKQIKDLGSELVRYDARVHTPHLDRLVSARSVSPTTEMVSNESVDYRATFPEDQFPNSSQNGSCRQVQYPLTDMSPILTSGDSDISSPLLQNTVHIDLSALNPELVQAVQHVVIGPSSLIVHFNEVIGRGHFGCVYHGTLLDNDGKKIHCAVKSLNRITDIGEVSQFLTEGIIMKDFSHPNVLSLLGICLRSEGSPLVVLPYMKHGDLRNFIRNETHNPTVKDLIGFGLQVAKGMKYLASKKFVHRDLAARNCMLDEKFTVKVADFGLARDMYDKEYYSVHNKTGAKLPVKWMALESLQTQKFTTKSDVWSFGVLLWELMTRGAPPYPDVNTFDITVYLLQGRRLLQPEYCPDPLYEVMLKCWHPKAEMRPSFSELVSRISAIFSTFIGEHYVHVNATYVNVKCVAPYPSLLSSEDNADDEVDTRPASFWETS
Chain of RON (Q04912 25-1400, species assumed): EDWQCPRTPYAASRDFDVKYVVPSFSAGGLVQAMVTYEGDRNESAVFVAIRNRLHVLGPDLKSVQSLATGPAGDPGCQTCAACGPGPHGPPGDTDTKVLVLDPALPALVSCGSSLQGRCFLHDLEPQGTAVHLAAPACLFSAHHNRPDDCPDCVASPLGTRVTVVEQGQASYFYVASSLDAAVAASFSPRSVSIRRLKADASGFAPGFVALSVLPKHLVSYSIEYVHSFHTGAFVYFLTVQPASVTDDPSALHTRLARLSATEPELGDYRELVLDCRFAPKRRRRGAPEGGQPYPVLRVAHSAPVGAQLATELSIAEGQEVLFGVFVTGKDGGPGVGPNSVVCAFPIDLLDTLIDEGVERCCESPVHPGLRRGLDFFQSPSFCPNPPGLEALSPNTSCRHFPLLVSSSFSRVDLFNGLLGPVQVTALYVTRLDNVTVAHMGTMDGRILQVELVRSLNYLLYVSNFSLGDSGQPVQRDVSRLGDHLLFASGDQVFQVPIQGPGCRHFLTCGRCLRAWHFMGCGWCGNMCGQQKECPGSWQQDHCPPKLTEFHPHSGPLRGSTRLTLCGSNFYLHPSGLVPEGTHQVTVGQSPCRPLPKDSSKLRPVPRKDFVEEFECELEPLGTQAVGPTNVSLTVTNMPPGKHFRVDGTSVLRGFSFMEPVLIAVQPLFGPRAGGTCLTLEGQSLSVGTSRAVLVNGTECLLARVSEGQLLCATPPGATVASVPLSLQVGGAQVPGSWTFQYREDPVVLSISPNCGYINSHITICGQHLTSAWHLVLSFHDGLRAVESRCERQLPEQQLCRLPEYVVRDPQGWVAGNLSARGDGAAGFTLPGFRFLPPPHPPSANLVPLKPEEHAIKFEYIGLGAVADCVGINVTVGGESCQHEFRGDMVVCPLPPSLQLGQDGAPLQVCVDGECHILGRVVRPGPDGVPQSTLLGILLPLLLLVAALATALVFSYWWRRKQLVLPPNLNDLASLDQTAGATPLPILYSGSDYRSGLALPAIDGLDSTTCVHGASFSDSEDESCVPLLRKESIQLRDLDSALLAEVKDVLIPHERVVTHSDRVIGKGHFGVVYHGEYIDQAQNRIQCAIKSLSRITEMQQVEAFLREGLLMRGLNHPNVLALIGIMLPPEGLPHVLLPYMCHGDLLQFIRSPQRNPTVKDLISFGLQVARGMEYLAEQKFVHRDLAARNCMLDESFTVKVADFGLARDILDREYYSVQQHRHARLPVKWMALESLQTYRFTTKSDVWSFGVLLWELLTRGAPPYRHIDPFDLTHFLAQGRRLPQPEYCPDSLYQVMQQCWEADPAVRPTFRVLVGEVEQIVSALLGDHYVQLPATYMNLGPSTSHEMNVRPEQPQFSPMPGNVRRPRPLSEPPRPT

SMILES	pIC50 [1]	pIC50 [2]
Nc1nccc(Oc2ccc(NC(=O)c3cnn(-c4ccncc4)c3C(F)(F)F)cc2F)c1Cl [Example 19, N-(4-((2-amino-3-chloropyridin-4-yl)oxy)-3-fluorophenyl)-1-(pyridin-4-yl)-5-(trifluoromethyl)-1H-pyrazole-4-carboxamide]	6.30 to 7.30	5.30 to 6.30
Nc1nccc(Oc2ccc(NC(=O)c3cnn(-c4ncc(O)cn4)c3C(F)(F)F)cc2F)c1Cl [Example 27, N-(4-((2-amino-3-chloropyridin-4-yl)oxy)-3-fluorophenyl)-1-(5-hydroxypyrimidin-2-yl)-5-(trifluoromethyl)-1H-pyrazole-4-carboxamide]	6.30 to 7.30	< 5.30
Nc1nccc(Oc2ccc(NC(=O)c3cnn(-c4cccnn4)c3C(F)(F)F)cc2F)c1Cl [Example 20, N-(4-((2-amino-3-chloropyridin-4-yl)oxy)-3-fluorophenyl)-1-(pyridazin-3-yl)-5-(trifluoromethyl)-1H-pyrazole-4-carboxamide]	> 7.30	5.30 to 6.30
Nc1nccc(Oc2ccc(NC(=O)c3cnn(-c4ncc(F)cc4F)c3C(F)(F)F)cc2F)c1Cl [Example 29, N-(4-((2-amino-3-chloropyridin-4-yl)oxy)-3-fluorophenyl)-1-(3,5-difluoropyridin-2-yl)-5-(trifluoromethyl)-1H-pyrazole-4-carboxamide]	> 7.30	< 5.30
Nc1nccc(Oc2ccc(NC(=O)c3cnn(-c4cc(Cl)ccn4)c3C(F)(F)F)cc2F)c1Cl [Example 14, N-(4-((2-amino-3-chloropyridin-4-yl)oxy)-3-fluorophenyl)-1-(4-chloropyridin-2-yl)-5-(trifluoromethyl)-1H-pyrazole-4-carboxamide]	6.30 to 7.30	< 5.30
Nc1nccc(Oc2ccc(NC(=O)c3cnn(-c4ncccc4F)c3C(F)(F)F)cc2F)c1I [Example 28, N-(4-((2-amino-3-iodopyridin-4-yl)oxy)-3-fluorophenyl)-1-(3-fluoropyridin-2-yl)-5-(trifluoromethyl)-1H-pyrazole-4-carboxamide]	> 7.30	5.30 to 6.30
Cn1cc(-n2ncc(C(=O)Nc3ccc(Oc4ccnc(N)c4Cl)c(F)c3)c2C(F)(F)F)cn1 [Example 39, N-(4-((2-amino-3-chloropyridin-4-yl)oxy)-3-fluorophenyl)-1′-methyl-5-(trifluoromethyl)-1′H-[1,4′-bipyrazole]-4-carboxamide]	6.30 to 7.30	< 5.30
Cc1csc(-n2ncc(C(=O)Nc3ccc(Oc4ccnc(N)c4Cl)c(F)c3)c2C(F)(F)F)n1 [Example 40, N-(4-((2-amino-3-chloropyridin-4-yl)oxy)-3-fluorophenyl)-1-(4-methylthiazol-2-yl)-5-(trifluoromethyl)-1H-pyrazole-4-carboxamide]	6.30 to 7.30	< 5.30
CCOc1cccnc1-n1ncc(C(=O)Nc2ccc(Oc3ccnc(N)c3Cl)c(F)c2)c1C(F)(F)F [Example 24, N-(4-((2-amino-3-chloropyridin-4-yl)oxy)-3-fluorophenyl)-1-(3-ethoxypyridin-2-yl)-5-(trifluoromethyl)-1H-pyrazole-4-carboxamide]	6.30 to 7.30	5.30 to 6.30
Nc1nccc(Oc2ccc(NC(=O)c3cnn(-c4cncnc4)c3C(F)(F)F)cc2F)c1Cl [Example 6, N-(4-((2-amino-3-chloropyridin-4-yl)oxy)-3-fluorophenyl)-1-(pyrimidin-5-yl)-5-(trifluoromethyl)-1H-pyrazole-4-carboxamide]	6.30 to 7.30	< 5.30
CCc1c(C(=O)Nc2ccc(Oc3ccnc(N)c3Cl)c(F)c2)cnn1-c1ncccc1F [Example 35, N-(4-((2-amino-3-chloropyridin-4-yl)oxy)-3-fluorophenyl)-5-ethyl-1-(3-fluoropyridin-2-yl)-1H-pyrazole-4-carboxamide]	> 7.30	< 5.30
Nc1nccc(Oc2ccc(NC(=O)c3cnn(-c4ccncn4)c3C(F)(F)F)cc2F)c1Cl [Example 22, N-(4-((2-amino-3-chloropyridin-4-yl)oxy)-3-fluorophenyl)-1-(pyrimidin-4-yl)-5-(trifluoromethyl)-1H-pyrazole-4-carboxamide]	6.30 to 7.30	< 5.30

The next lines start with the values.

pIC50 [1]	pIC50 [2]	SMILES
> 7.30	< 5.30	Nc1ncnc(Oc2ccc(NC(=O)c3cnn(-c4ccccn4)c3C(F)(F)F)cc2F)c1Cl [Example 43, N-(4-((6-amino-5-chloropyrimidin-4-yl)oxy)-3-fluorophenyl)-1-(pyridin-2-yl)-5-(trifluoromethyl)-1H-pyrazole-4-carboxamide]
6.30 to 7.30	< 5.30	COc1cccnc1-n1ncc(C(=O)Nc2ccc(Oc3ncnc(N)c3Cl)c(F)c2)c1C(F)(F)F [Example 54, N-[4-(6-amino-5-chloro-pyrimidin-4-yl)oxy-3-fluoro-phenyl]-1-(3-methoxy-2-pyridyl)-5-(trifluoromethyl)pyrazole-4-carboxamide]
> 7.30	5.30 to 6.30	Nc1ncnc(Oc2ccc(NC(=O)c3cnn(-c4ncccc4F)c3C(F)(F)F)cc2F)c1Cl [Example 45, N-[4-(6-amino-5-chloro-pyrimidin-4-yl)oxy-3-fluoro-phenyl]-1-(3-fluoro-2-pyridyl)-5-(trifluoromethyl)pyrazole-4-carboxamide]
6.30 to 7.30	< 5.30	Cc1cccnc1-n1ncc(C(=O)Nc2ccc(Oc3ncnc(N)c3Cl)c(F)c2)c1C(F)(F)F [Example 46, N-[4-(6-amino-5-chloro-pyrimidin-4-yl)oxy-3-fluoro-phenyl]-1-(3-methyl-2-pyridyl)-5-(trifluoromethyl)pyrazole-4-carboxamide]
< 5.30	< 5.30	Nc1ncnc(Oc2ccc(NC(=O)c3nc(-c4ccccc4)cs3)cc2F)c1Cl [Example 41, N-[4-(6-amino-5-chloro-pyrimidin-4-yl)oxy-3-fluoro-phenyl]-4-phenyl-thiazole-2-carboxamide]
> 7.30	< 5.30	Nc1ncnc(Oc2ccc(NC(=O)c3cnn(-c4ncccn4)c3C(F)(F)F)cc2F)c1Cl [Example 59, N-[4-(6-amino-5-chloro-pyrimidin-4-yl)oxy-3-fluoro-phenyl]-1-pyrimidin-2-yl-5-(trifluoromethyl)pyrazole-4-carboxamide]
6.30 to 7.30	< 5.30	Nc1ncnc(Oc2ccc(NC(=O)c3cnn(-c4cc(F)ccn4)c3C(F)(F)F)cc2F)c1Cl [Example 63, N-[4-(6-amino-5-chloro-pyrimidin-4-yl)oxy-3-fluoro-phenyl]-1-(4-fluoro-2-pyridyl)-5-(trifluoromethyl)pyrazole-4-carboxamide]
> 7.30	5.30 to 6.30	Nc1ncnc(Oc2ccc(NC(=O)c3cnn(-c4ncccc4Cl)c3C(F)(F)F)cc2F)c1Cl [Example 51, N-[4-(6-amino-5-chloro-pyrimidin-4-yl)oxy-3-fluoro-phenyl]-1-(3-chloro-2-pyridyl)-5-(trifluoromethyl)pyrazole-4-carboxamide]
